Laboratory results: patent USRE48097E1, “Cephem compounds, their production and use” (priority 2015, dated 2020)
In brackets after ≈: the same amount, converted by molar mass. Read-outs that look alike come from different tables or passages of the source. One block for each compound: values may come before it.

Assays:
Type in all cases: cell-based
[1] = tested on: S. aureus 3136; experiment: MIC against S. aureus 3136; details: Table 2, S. aureus 3136, MSSA
From the text: (§1) Without limitation, the present cephem compounds alone, or in combination with one or more β-lactamase inhibitors, may provide improved antibacterial efficacy, particularly in antibiotic-resistant bacterial strains. It is believed that the present compounds may be structurally different from known compounds and, as a result, may be more basic in nature. It is an advantage that the present compounds may extend the spectrum of effective bacterial compounds, particularly against previously-resistant bacteria (e.g. ESKAPE organisms), and/or gram negative bacteria, without significant side effects. In a preferred embodiment, the present cephem compound may comprise reference compound ceftazidime, which may be used alone, or in combination with one or more β-lactamase inhibitors, such as NXL-104. As shown, the foregoing composition was tested for minimum inhibitory concentration (MIC, μg/mL) against bacteria listed in Tables 2-3.

[2] = tested on: S. aureus 3147; experiment: MIC against S. aureus 3147; details: Table 2, S. aureus 3147, MSSA
From the text: as §1

[3] = tested on: S. pneumoniae ATCC 6301; experiment: MIC against S. pneumoniae ATCC 6301; details: Table 2, S. pneumoniae ATCC 6301, Pen S
From the text: as §1

[4] = tested on: S. pneumoniae 2493; experiment: MIC against S. pneumoniae 2493; details: Table 2, S. pneumoniae 2493, Pen R
From the text: as §1

[5] = tested on: S. pneumoniae 2403; experiment: MIC against S. pneumoniae 2403; details: Table 2, S. pneumoniae 2403, Pen S
From the text: as §1

[6] = tested on: S. pneumoniae 2405; experiment: MIC against S. pneumoniae 2405; details: Table 2, S. pneumoniae 2405, Pen S
From the text: as §1

[7] = tested on: S. pneumoniae 2407; experiment: MIC against S. pneumoniae 2407; details: Table 2, S. pneumoniae 2407, Pen S
From the text: as §1

[8] = tested on: E. cloacae 2704; experiment: MIC against E. cloacae 2704; details: Table 2, E. cloacae 2704, P99
From the text: as §1

[9] = tested on: E. cloacae 566; experiment: MIC against E. cloacae 566; details: Table 2, E. cloacae 566, Caz R, IMP S
From the text: as §1

[10] = tested on: C. freundii 579; experiment: MIC against C. freundii 579; details: Table 2, C. freundii 579, Caz R, IMP S
From the text: as §1

[11] = tested on: C. freundii 580; experiment: MIC against C. freundii 580; details: Table 2, C. freundii 580, Caz R, IMP S
From the text: as §1

[12] = tested on: C. freundii 2487; experiment: MIC against C. freundii 2487; details: Table 2, C. freundii 2487, Caz R, IMP S
From the text: as §1

[13] = tested on: K. pneumoniae 4106; experiment: MIC against K. pneumoniae 4106; details: K. pneumoniae 4106, KPC-3, TEM-1, SHV-12, SHV-141
Experimental: (§2) As shown, the foregoing composition was tested for minimum inhibitory concentration (MIC, μg/mL) against bacteria listed in Tables 2-3.

[14] = tested on: K. pneumoniae 4107; experiment: MIC against K. pneumoniae 4107; details: K. pneumoniae 4107, KPC-2, TEM-1, SHV-11
Experimental: as §2

[15] = tested on: E. coli 4080; experiment: MIC against E. coli 4080; details: Table 2, E. coli 4080, TEM-10
From the text: as §1

[16] = tested on: E. coli 4102; experiment: MIC against E. coli 4102; details: Table 2, E. coli 4102, CTX-M-14
From the text: as §1

[17] = tested on: K. baumanii 4091; experiment: MIC against K. baumanii 4091; details: Table 2, K. baumanii 4091, OXA-23
From the text: as §1

[18] = tested on: K. baumanii 4095; experiment: MIC against K. baumanii 4095; details: Table 2, K. baumanii 4095, OXA-48
From the text: as §1

[19] = tested on: E. coli 2668; experiment: MIC against E. coli 2668; details: Table 2, E. coli 2668, OXA-48
From the text: as §1

[20] = tested on: E. cloacae 2689; experiment: MIC against E. cloacae 2689; details: Table 3, E. cloacae 2689, KPC-2
Experimental: as §2

[21] = tested on: E. cloacae 2710; experiment: MIC against E. cloacae 2710; details: Table 3, E. cloacae 2710, KPC-3, VIM-1
Experimental: as §2

[22] = tested on: E. coli 2666; experiment: MIC against E. coli 2666; details: Table 3, E. coli 2666, KPC-2
Experimental: as §2

[23] = tested on: K. pneumoniae 2713; experiment: MIC against K. pneumoniae 2713; details: Table 3, K. pneumoniae 2713, KPC-3, VIM-1
Experimental: as §2

[24] = tested on: K. pneumoniae 4088; experiment: MIC against K. pneumoniae 4088; details: Table 3, K. pneumoniae 4088, KPC-3
Experimental: as §2

[25] = Table 2, in combination with NXL-104
[26] = Table 3, in combination with NXL-104
[27] = Staphylococcus aureus, alone, read-out: MIC
[28] = Streptococcus pneumoniae, alone, read-out: MIC
[29] = Enterobacter cloacae, alone, read-out: MIC
[30] = Citrobacter freundii, alone, read-out: MIC
[31] = Escherichia coli, alone, read-out: MIC
[32] = Klebsiella pneumoniae, alone, read-out: MIC

MIC ([1]; alone): 8.00 µg/mL
MIC ([1]; in combination with NXL-104): 8.00 µg/mL
MIC ([2]; alone): 8.00 µg/mL
MIC ([2]; in combination with NXL-104): 8.00 µg/mL
MIC ([3]; alone): 0.12 µg/mL
MIC ([3]; in combination with NXL-104): 0.12 µg/mL
MIC ([4]; alone): 16.00 µg/mL
MIC ([4]; in combination with NXL-104): 16.00 µg/mL
MIC ([5]; alone): 0.12 µg/mL
MIC ([5]; in combination with NXL-104): 0.12 µg/mL
MIC ([6]; alone): 0.25 µg/mL
MIC ([6]; in combination with NXL-104): 0.25 µg/mL
MIC ([7]; alone): 4.00 µg/mL
MIC ([7]; in combination with NXL-104): 32.00 µg/mL
MIC ([8]; alone): 16.00 µg/mL
MIC ([8]; in combination with NXL-104): 4.00 µg/mL
MIC ([9]; alone): >32 µg/mL
MIC ([9]; in combination with NXL-104): 2.00 µg/mL
MIC ([10]; alone): 4.00 µg/mL
MIC ([10]; in combination with NXL-104): 2.00 µg/mL
MIC ([11]; alone): 8.00 µg/mL
MIC ([11]; in combination with NXL-104): 2.00 µg/mL
MIC ([12]; alone): 16.00 µg/mL
MIC ([12]; in combination with NXL-104): 8.00 µg/mL
MIC ([13]; Table 2, alone): 16.00 µg/mL (≈ 29.3 µM)
MIC [13, 25]: 4.00 µg/mL
MIC ([13]; Table 3, alone): >32 µg/mL
MIC [13, 26]: 8 µg/mL
MIC ([14]; Table 2, alone): 32.00 µg/mL (≈ 58.5 µM)
MIC [14, 25]: 8.00 µg/mL
MIC ([14]; Table 3, alone): >32 µg/mL
MIC [14, 26]: 4 µg/mL
MIC ([15]; alone): 16.00 µg/mL
MIC ([15]; in combination with NXL-104): 4.00 µg/mL
MIC ([16]; alone): 1.00 µg/mL
MIC ([16]; in combination with NXL-104): 0.25 µg/mL
MIC ([17]; alone): >32 µg/mL
MIC ([17]; in combination with NXL-104): 16.00 µg/mL
MIC ([18]; alone): 0.50 µg/mL
MIC ([18]; in combination with NXL-104): 0.50 µg/mL
MIC ([19]; alone): 1.00 µg/mL
MIC ([19]; in combination with NXL-104): 0.50 µg/mL
MIC ([20]; alone): >32 µg/mL
MIC ([20]; in combination with NXL-104): 2 µg/mL
MIC ([21]; alone): >32 µg/mL
MIC ([21]; in combination with NXL-104): >32 µg/mL
MIC ([22]; alone): >32 µg/mL
MIC ([22]; in combination with NXL-104): 4 µg/mL
MIC ([23]; alone): >32 µg/mL
MIC ([23]; in combination with NXL-104): 8 µg/mL
MIC ([24]; alone): >32 µg/mL
MIC ([24]; in combination with NXL-104): 8 µg/mL
Structure (SMILES): CC(C)(O/N=C(\C(=O)N[C@@H]1C(=O)N2C(C(=O)[O-])=C(C[n+]3ccccc3)CS[C@H]12)c1csc(N)n1)C(=O)O [CAZ, ceftazidime, reference compound]

MIC [1, 27]: 2 µg/mL
MIC [2, 27]: 2 µg/mL
MIC ([3]; Streptococcus pneumoniae, ATCC6301, alone, read-out: MIC): ≤ 0.06 µg/mL
MIC [4, 28]: 4 µg/mL
MIC [5, 28]: ≤ 0.06 µg/mL
MIC [6, 28]: ≤ 0.06 µg/mL
MIC [7, 28]: 0.12 µg/mL
MIC [8, 29]: 16 µg/mL
MIC [9, 29]: 4 µg/mL
MIC [10, 30]: 4 µg/mL
MIC [11, 30]: 16 µg/mL
MIC [12, 30]: 32 µg/mL
MIC ([13]; Klebsiella pneumoniae, 4106, Table 2, alone, read-out: MIC): 8 µg/mL (≈ 11.1 µM)
MIC ([13]; Klebsiella pneumoniae, 4106, Table 3, alone, read-out: MIC): 32 µg/mL (≈ 44.6 µM)
MIC ([14]; Klebsiella pneumoniae, 4107, Table 2, alone, read-out: MIC): 16 µg/mL (≈ 22.3 µM)
MIC ([14]; Klebsiella pneumoniae, 4107, Table 3, alone, read-out: MIC): 32 µg/mL (≈ 44.6 µM)
MIC [15, 31]: 4 µg/mL
MIC [16, 31]: 1 µg/mL
MIC ([17]; alone, read-out: MIC): 16 µg/mL
MIC ([18]; alone, read-out: MIC): 0.5 µg/mL
MIC [19, 31]: 1 µg/mL
MIC [20, 29]: 32 µg/mL (≈ 44.6 µM)
MIC [21, 29]: > 32 µg/mL
MIC [22, 31]: 32 µg/mL (≈ 44.6 µM)
MIC [23, 32]: > 32 µg/mL
MIC [24, 32]: > 32 µg/mL
Structure (SMILES): CC(C)(O/N=C(\C(=O)N[C@@H]1C(=O)N2C(C(=O)[O-])=C(C[n+]3ccc4c(ccn4Cc4ccc(C(=N)N)cc4)c3)CS[C@H]12)c1csc(N)n1)C(=O)O [Ex-1, (6R,7R)-7-{[(2Z)-2-(2-Amino-1,3-thiazol-4-yl)-2-{[(2-carboxypropan-2-yl)oxy]imino}acetyl]-amino}-3-{[1-(4-carbamimidoylbenzyl)-1H-pyrrolo[3,2-c]pyridin-5-ium-5-yl]methyl}-8-oxo-5-thia-1-azabicyclo[4.2.0]oct-2-ene-2-carboxylate]
